“Also recorded” adds a separate entry of the source.
Columns and labels:
VPAC2-R [1] = target: T1, VPAC2-R (Homo sapiens, UniProt P41587); assay: Binding of 125I-PACAP27 to VPAC2-R/PANC-1 cells; conditions: ratio of binding IC50, analog vs native parent peptide
T1 sequence (P41587 24-438): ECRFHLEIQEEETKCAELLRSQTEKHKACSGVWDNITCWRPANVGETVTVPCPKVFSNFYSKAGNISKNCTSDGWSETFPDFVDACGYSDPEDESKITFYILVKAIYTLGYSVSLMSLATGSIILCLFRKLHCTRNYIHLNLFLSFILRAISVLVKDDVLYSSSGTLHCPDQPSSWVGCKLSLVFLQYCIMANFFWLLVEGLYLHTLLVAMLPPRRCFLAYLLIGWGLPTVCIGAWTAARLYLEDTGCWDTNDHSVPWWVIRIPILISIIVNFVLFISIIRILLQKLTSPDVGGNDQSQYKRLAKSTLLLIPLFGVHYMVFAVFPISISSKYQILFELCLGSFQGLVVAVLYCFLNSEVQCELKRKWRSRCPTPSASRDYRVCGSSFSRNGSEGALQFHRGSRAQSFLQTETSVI

VPAC2-R [2] = target: T1, VPAC2-R; assay: [3H]cAMP generation in VPAC2-R/PANC-1 cells; assay type: cell-based; conditions: VPAC2-R/PANC-1 cells; relative to PACAP38; up to 1 µM

decrease in affinity for VPAC2-R/PANC-1 cells compared to native PACAP38 (or PACAP27, VIP) (VPAC2-R [1]) | Substance | [3H]cAMP VPAC2-R/PANC-1 % max (agonist class) (VPAC2-R [2])
2-to-6 fold | [Aib^16,28,Ala^17,Lys^34,D-Lys^38]PACAP38 [Peptide P34] | 
2-to-6 fold | [Aib^16,Ala^17,Lys^34]PACAP38 [Peptide P30] | 
2-to-6 fold | [Ala^16,17,D-Lys^38]PACAP38 [Peptide P23] | 
16–21 fold | [D-Ser^2,Lys(Palmitoyl)^38]PACAP38 [Peptide P13] | 
50–400 fold | [Hyp^3,Aib^16,Ala^17,Lys^34]PACAP38 [Peptide P31] | 
50–400 fold | [Hyp^3,Ala^16,17]PACAP38 [Peptide P20] | Ag (1 µM, 35)
2-to-6 fold | [Iac^1,Ala^16,17,D-Lys^38]PACAP38 [Peptide P29] | 
16–21 fold | [Lys(palmitoyl)^38]PACAP38 [Peptide P12] | 
40–85 fold | [Me-Asp^3,Aib^16,28,Lys^34,D-Lys^38]PACAP38 [Peptide P33] | 
2-to-6 fold | [N-Ac-His^1,Ala^16,17,D-Lys^38]PACAP38 [Peptide P28] | 
15–500 fold | [N-Ac-His^1,Pip^3]PACAP38 [Peptide P27] | Ag (1 µM, 18)
 | [Pip^3,Aib^16,28,Ala^17,20,Lys^34,D-Lys^38]PACAP38 [Peptide P41] | no agonist activity; also recorded: No Act
 | [Pip^3,Aib^16,28,Ala^17,21,Lys^34,D-Lys^38]PACAP38 [Peptide P40] | no agonist activity; also recorded: No Act
50–400 fold | [Pip^3,Aib^16,28,Ala^17,Lys^34,D-Lys^38]PACAP38 [Peptide P35] | Ag (1 µM, 33)
 | [Pip^3,Ala^14,17,Aib^16,28,Lys^34,D-Lys^38]PACAP38 [Peptide P39] | no agonist activity; also recorded: No Act
 | [Pip^3,Ala^15,17,Aib^16,28,Lys^34,D-Lys^38]PACAP38 [Peptide P38] | no agonist activity; also recorded: No Act
15–500 fold | [Pip^3]PACAP38 [Peptide P26] | no agonist activity; also recorded: No Act
15–500 fold | [Pro^3]PACAP38 [Peptide P18] | Ag (1 µM, 26)
15–500 fold | [Sar^3]PACAP38 [Peptide P19] | Ag (1 µM, 35)
50–400 fold | [β-Ala^3,Ala^16,17]PACAP38 [Peptide P21] | no agonist activity; also recorded: No Act

Substance | decrease in affinity for VPAC2-R/PANC-1 cells compared to native PACAP38 (or PACAP27, VIP) (VPAC2-R [1]) | [3H]cAMP VPAC2-R/PANC-1 % max (agonist class) (VPAC2-R [2])
[Iaa^1,D-Ser^2,Ala^22]PACAP38 [Peptide P48] | 50–400 fold | Ag (1 µM, 43)
[Iaa^1,D-Tyr^2,Ala^22]PACAP38 [Peptide P49] | 50–400 fold | 
